Article PMC8667902 (Journal of Enzyme Inhibition and Medicinal Chemistry, 2021)
Where “and” joins values, the source holds several entries; their conditions need not be identical. Equal values may be shown once. Read-outs that look alike come from different tables or passages of the source.

Key:
[1] = biological target: eeAChE (Electrophorus electricus, UniProt O42275); experiment: Ellman's method, electric eel AChE; type: biochemical
[2] = Oxygen Radicals Absorbance Capacity by Fluorescence; conditions: for ORAC: Trolox as reference; for ORAC-FL value: Trolox equivalents
[3] = biological target: T1, huMAO-A (Homo sapiens, UniProt P21397); experiment: huMAO-A inhibition, fluorescence method; type: biochemical; conditions: for inhibition at 10 µM: read-out: MAO-A percent inhibition rate
T1 sequence (P21397 1-527): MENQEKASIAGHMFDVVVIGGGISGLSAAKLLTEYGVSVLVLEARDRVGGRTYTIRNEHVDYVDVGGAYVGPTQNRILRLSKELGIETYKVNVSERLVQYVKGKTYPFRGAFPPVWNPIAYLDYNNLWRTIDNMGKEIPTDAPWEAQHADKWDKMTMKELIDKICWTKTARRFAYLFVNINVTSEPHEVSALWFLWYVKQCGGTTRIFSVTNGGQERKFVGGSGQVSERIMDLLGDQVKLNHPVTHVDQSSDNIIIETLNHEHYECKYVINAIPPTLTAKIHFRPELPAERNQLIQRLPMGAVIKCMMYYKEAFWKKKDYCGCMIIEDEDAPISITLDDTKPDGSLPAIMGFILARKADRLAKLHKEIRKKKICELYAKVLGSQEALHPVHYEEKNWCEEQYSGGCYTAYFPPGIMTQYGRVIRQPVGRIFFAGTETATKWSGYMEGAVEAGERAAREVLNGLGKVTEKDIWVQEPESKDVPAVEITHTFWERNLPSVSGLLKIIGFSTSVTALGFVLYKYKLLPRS

[4] = biological target: ratBuChE (Rattus norvegicus, UniProt Q9JKC1); experiment: Ellman's method, BuChE from rat serum; type: biochemical
Chain of ratBuChE (Q9JKC1 24-597): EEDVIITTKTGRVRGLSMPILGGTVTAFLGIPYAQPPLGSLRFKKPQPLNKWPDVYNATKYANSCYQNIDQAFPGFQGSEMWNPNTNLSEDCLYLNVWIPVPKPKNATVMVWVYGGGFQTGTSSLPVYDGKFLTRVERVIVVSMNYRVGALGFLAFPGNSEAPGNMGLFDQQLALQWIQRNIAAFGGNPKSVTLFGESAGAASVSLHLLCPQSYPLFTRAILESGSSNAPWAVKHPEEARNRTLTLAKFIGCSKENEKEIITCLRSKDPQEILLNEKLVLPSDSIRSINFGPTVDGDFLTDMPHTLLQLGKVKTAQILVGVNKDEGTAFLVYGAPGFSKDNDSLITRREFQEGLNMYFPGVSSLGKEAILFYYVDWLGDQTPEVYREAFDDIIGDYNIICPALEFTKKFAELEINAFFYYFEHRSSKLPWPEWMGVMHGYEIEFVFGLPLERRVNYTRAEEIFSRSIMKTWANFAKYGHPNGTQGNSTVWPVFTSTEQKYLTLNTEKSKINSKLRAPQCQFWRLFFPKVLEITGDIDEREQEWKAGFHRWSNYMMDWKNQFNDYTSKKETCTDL

[5] = biological target: T2, Aβ1–42 (Homo sapiens, UniProt P05067); experiment: Inhibition of self-induced Aβ1–42 aggregation; type: biochemical; conditions: ThT assay; for inhibition at 25 µM: read-out: Inhibition of Aβ1–42 aggregation (%) Self-induced, 25 μM
T2 sequence (P05067 672-713): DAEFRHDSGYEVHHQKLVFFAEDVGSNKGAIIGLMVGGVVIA

[6] = biological target: T3, ratAChE (Rattus norvegicus, UniProt P37136); experiment: Ellman's method, AChE from rat cortex homogenate; type: biochemical; conditions: for SI = Selectivity index = IC50 (BuChE)/IC50 (AChE): ratBuChE over rat AChE
T3 sequence (P37136 32-614): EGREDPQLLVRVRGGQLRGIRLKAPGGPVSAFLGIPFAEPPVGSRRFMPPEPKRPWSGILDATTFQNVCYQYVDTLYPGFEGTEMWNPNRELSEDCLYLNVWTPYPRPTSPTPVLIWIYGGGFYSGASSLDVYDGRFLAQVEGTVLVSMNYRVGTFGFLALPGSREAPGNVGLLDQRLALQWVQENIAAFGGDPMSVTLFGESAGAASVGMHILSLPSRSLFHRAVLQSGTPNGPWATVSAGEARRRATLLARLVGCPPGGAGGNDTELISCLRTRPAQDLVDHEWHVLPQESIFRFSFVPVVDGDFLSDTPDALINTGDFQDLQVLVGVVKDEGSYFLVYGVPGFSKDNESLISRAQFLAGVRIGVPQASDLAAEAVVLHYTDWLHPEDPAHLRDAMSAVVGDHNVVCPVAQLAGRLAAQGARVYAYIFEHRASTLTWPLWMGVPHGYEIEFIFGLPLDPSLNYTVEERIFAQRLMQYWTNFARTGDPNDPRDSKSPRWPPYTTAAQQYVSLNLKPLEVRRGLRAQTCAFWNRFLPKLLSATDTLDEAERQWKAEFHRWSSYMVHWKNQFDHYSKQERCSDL

[7] = biological target: T2, Aβ1–42; experiment: Inhibition of Cu2+-induced Aβ1–42 aggregation; type: biochemical; conditions: read-out: Inhibition of Aβ1–42 aggregation (%) Cu^2+-induced
[8] = biological target: T4, huMAO-B (Homo sapiens, UniProt P27338); experiment: biochemical
T4 sequence (P27338 1-520): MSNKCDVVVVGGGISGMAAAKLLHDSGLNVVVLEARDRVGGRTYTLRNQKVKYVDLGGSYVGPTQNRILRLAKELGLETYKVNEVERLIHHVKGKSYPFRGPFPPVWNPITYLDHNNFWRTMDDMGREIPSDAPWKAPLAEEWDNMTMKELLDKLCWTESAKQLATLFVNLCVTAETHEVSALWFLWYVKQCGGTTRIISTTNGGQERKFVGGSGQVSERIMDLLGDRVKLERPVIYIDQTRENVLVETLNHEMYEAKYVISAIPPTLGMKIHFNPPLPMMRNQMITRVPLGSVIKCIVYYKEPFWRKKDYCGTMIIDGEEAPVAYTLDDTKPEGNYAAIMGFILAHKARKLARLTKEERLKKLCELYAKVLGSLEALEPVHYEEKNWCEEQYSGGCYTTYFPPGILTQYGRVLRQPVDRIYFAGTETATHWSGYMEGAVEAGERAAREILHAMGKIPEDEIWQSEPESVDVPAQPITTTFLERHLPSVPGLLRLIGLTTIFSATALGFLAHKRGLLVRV

[9] = biological target: T5, Aβ1–42 fibrils (Homo sapiens, UniProt P05067); experiment: Disaggregation of Cu2+-induced Aβ1–42 aggregation; type: biochemical
T5 sequence (P05067 672-713): as the sequence (P05067 672-713) above

[10] = biological target: T5, Aβ1–42 fibrils; experiment: Disaggregation of self-induced Aβ1–42 aggregation; type: biochemical; conditions: 25 μM; ThT assay

Chain of eeAChE (O42275 24-633): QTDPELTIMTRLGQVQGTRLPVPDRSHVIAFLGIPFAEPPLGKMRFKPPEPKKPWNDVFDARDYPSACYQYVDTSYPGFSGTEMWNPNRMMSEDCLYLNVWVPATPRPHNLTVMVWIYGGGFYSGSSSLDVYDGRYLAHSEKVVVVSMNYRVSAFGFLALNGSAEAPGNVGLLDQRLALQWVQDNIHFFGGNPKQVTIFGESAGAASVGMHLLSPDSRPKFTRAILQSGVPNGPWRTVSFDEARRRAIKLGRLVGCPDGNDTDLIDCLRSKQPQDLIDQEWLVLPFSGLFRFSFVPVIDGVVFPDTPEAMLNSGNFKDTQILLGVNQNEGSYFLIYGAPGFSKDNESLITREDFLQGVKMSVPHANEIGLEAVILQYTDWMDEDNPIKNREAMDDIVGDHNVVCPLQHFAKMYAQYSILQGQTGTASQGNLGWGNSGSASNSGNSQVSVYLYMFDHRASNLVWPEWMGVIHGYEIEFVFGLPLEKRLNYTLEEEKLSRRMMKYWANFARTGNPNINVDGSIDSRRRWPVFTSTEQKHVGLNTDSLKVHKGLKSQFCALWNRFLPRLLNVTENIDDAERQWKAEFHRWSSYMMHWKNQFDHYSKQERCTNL

SMILES | IC50 [1] [µM] | ORAC [2] | ORAC-FL value [2] [eq] | inhibition at 10 µM [3] [%] | IC50 [4] [µM] | inhibition at 25 µM [5] [%] | IC50 [6] [µM] | inhibition at 25 µM [7] [%] | IC50 [8] [µM] | Disaggregation of Aβ1–42 aggregation (%) Cu^2+-induced ([9]; 25 μM, ThT assay) | SI = Selectivity index = IC50 (BuChE)/IC50 (AChE) [6] | Disaggregation of Aβ1–42 aggregation (%) Self-induced [10] [%] | IC50 [3] [µM] | SI = selectivity index = IC50 (hMAO-A)/IC50 (hMAO-B) [8] | Disaggregation of Aβ1–42 aggregation (%) Cu^2+-induced [9] [%] | Inhibition of Aβ1–42 aggregation (%) Self-induced ([5]; 25 μM)
COc1cc(O)c(C(=O)/C=C/c2ccc(O)cc2)c(OC)c1OC [Compound 8, (E)-1-(6-hydroxy-2,3,4-trimethoxyphenyl)-3-(4-hydroxyphenyl)-2-propen-1-one] | > 500 | 5.4 ± 0.01 μM of Trolox equivalent/μM of compounds | 5.4 | 22.9 | > 500 | 23.1 ± 0.01 | > 500 | 33.2 ± 0.01 | – | – | – | – | – | – | – | –
COc1ccccc1CN(C)CCCOc1ccc(/C=C/C(=O)c2c(O)cc(OC)c(OC)c2OC)cc1 [Compound 9a, (E)-1-(6-Hydroxy-2,3,4-trimethoxyphenyl)-3-(4-(3-((2-methoxybenzyl)(methyl)amino)propoxy)phenyl)prop-2-en-1-one] | 1.46 ± 0.02 | 1.01 ± 0.01 μM of Trolox equivalent/μM of compounds | – | 13.9 | > 500 | 57.4 ± 0.01 | 3.12 ± 0.02 | 66.2 ± 0.02 | 3.8 ± 0.02 | 54.2 ± 0.02% | >160.3 | 26.8 ± 0.02 | – | – | – | –
CCN(CCCOc1ccc(/C=C/C(=O)c2c(O)cc(OC)c(OC)c2OC)cc1)Cc1ccccc1OC [Compound 9b, (E)-3-(4-(3-(ethyl(2-methoxybenzyl)amino)propoxy)phenyl)-1-(6-hydroxy-2,3,4-trimethoxyphenyl)prop-2-en-1-one] | 1.62 ± 0.01 | 0.93 ± 0.01 μM of Trolox equivalent/μM of compounds | – | – | > 500 | 63.4 ± 0.03 | 0.67 ± 0.01 | 71.6 ± 0.01 | 8.1 ± 0.03 | 55.1 ± 0.22% | >746.3 | 22.2 ± 0.03 | 19.8 ± 0.22 | 2.4 | – | –
COc1ccccc1CN(C)CCCCOc1ccc(/C=C/C(=O)c2c(O)cc(OC)c(OC)c2OC)cc1 [Compound 9c, (E)-1-(6-hydroxy-2,3,4-trimethoxyphenyl)-3-(4-(4-((2-methoxybenzyl)(methyl)amino)butoxy)phenyl)prop-2-en-1-one] | 1.5 ± 0.02 | 0.97 ± 0.01 μM of Trolox equivalent/μM of compounds | – | – | > 500 | 65 ± 0.01 | 1.77 ± 0.01 | 74.1 ± 0.02 | 23.6 ± 0.12 | 66.6 ± 0.36% | >282.5 | 45.7 ± 0.12 | 35.7 ± 0.36 | 1.5 | – | –
COc1ccccc1CN(C)CCCCCCOc1ccc(/C=C/C(=O)c2c(O)cc(OC)c(OC)c2OC)cc1 [Compound 9e, (E)-1-(6-hydroxy-2,3,4-trimethoxyphenyl)-3-(4-(6-((2-methoxybenzyl)(methyl)amino)hexyloxy)phenyl)prop-2-en-1-one] | 1 ± 0.03 | 0.99 ± 0.02 μM of Trolox equivalent/μM of compounds | – | – | > 500 | 65.3 ± 0.02 | 1.68 ± 0.01 | 76.2 ± 0.04 | 2.5 ± 0.01 | 77.0 ± 0.57% | >297.6 | 58.2 ± 0.01 | 37.8 ± 0.57 | 15.1 | – | –
CCN(CCCCCCOc1ccc(/C=C/C(=O)c2c(O)cc(OC)c(OC)c2OC)cc1)Cc1ccccc1OC [Compound 9f, (E)-3-(4-(6-(ethyl(2-methoxybenzyl)amino)hexyloxy)phenyl)-1-(6-hydroxy-2,3,4-trimethoxyphenyl)prop-2-en-1-one] | 1.78 ± 0.02 | 0.96 ± 0.01 μM of Trolox equivalent/μM of compounds | – | – | > 500 | 69 ± 0.01 | 0.61 ± 0.01 | 75 ± 0.02 | 7.2 ± 0.03 | 81.4 ± 0.68% | >819.7 | 62.8 ± 0.03 | 43.6 ± 0.68 | 6.1 | – | –
CCN(CC)CCCCOc1ccc(/C=C/C(=O)c2c(O)cc(OC)c(OC)c2OC)cc1 [Compound 10, (E)-3-(4-(4-(diethylamino)butoxy)phenyl)-1-(6-hydroxy-2,3,4-trimethoxyphenyl)prop-2-en-1-one] | 2.72 ± 0.02 | 1.02 ± 0.01 μM of Trolox equivalent/μM of compounds | – | – | > 500 | 37.7 ± 0.02 | 4.94 ± 0.02 | 49.4 ± 0.02 | 14.6 ± 0.03 | 26.2% and 26.2 ± 0.28% | >101.2 | 25.6 ± 0.03 | 27.9 ± 0.28 | 1.9 | – | –
COc1cc(O)c(C(=O)/C=C/c2ccc(O)cc2)c(OC)c1O [Compound 16, 3′,4,6′-Trihydroxy-2′,4′-dimethoxy-chalcone] | > 500 | 7.8 ± 0.01 μM of Trolox equivalent/μM of compounds | 7.8 | – | > 500 | 27.7 ± 0.02 | > 500 | 38.1 ± 0.01 | – | – | – | – | 15.4 ± 0.16 | – | – | –
COc1cc(/C=C/C(=O)CC(=O)/C=C/c2ccc(O)c(OC)c2)ccc1O [Curcumin, reference compound] | – | – | – | – | – | 47.3 ± 0.01 | – | 76.5 ± 0.02 | – | – | – | – | – | – | 56.5 ± 0.21 | –
COc1cc2c(cc1OC)C(=O)C(CC1CCN(Cc3ccccc3)CC1)C2 (centres unmarked) [Donepezil, reference compound] | – | – | – | – | – | < 5 | – | – | – | – | – | – | – | – | – | n.a.^g (no active, meaning inhibition rate was <5.0% at 25 μM)
